According to patent US11261187B2, “Compounds and methods for targeting HSP90” (Duke University, priority 2016, dated 2022):

How the values were obtained:
[1] = tested on: eHsp90; experiment: Competition of fluorescent probe binding to eHsp90 on cells by untethered Hsp90 inhibitors; format: cell-based; details: for blocking of binding of 100 and HS-27 to eHsp90: untethered Hsp90 inhibitors
Protocol: Cells were plated on uncoated 18-mm round coverslips in 12 well plates at 150,000 cells/well and were allowed to adhere overnight. 100, in a stock solution in DMSO, was diluted in serum-free/phenol red-free DMEM. […] The coverslips were washed and mounted onto microscope slides using FluorSave mounting reagent (Millipore, Darmstadt, Germany). Slides were imaged on a Leica SP5 confocal microscope.
(§1) Images were analyzed for fluorescence and puncta using ImageJ software using a non-biased, high-throughput macro. In brief, cells were selected using an expanded selection from the DAPI channel. The regions of interest were then masked, a watershed filter was applied to split adjacent cells into separate cells, and the regions of interest were applied to the 100 channel to measure fluorescence and puncta. High resolution confocal stacks were deconvolved with Hyugen's Deconvolution Software or AiryScan.
(§2) To analyze the internalization of eHsp90 in transformed cells, the 4T1 cell model was utilized.

[2] = Absorbance and emission maxima of near IR fluorescent probes (Table 1); format: physicochemical
[3] = tested on: MDA-MB-468 flank tumors; experiment: Whole mouse 3D cryo-imaging of probe biodistribution, MDA-MB-468 flank xenograft; format: in vivo
Protocol: All protocols involving the use of mice were approved beforehand by the IACUC at Duke University and were strictly adhered to throughout the studies. A wild-type 3-month-old male SCID mouse with a right flank xenograft with MDA-MB-468 cells was injected with 25 nmol 100 through the tail vein. Six hours later, the mouse was euthanized, prepared according to the instructions from BioInVision, Inc. (Cleveland, Ohio, USA) and shipped for Cryo-Imaging and reconstruction. An EGFP/mCherry dual band filter set was used for imaging (#59022; Chroma Technology Corporation, Bellows Falls, Vt., USA).
The majority of cells are fully differentiated and not actively dividing, whereas some subpopulations of cells are constantly undergoing division and growth, such as the […] layer lining the intestinal tract. To determine if non-tumor cells express/internalize eHsp90, 3D cyrosectioning of mice bearing MDA-MB-468 flank tumors 6 hours post 100 injection was carried out. Probe uptake into the tumor in the live animal was first confirmed in a Licor instrument.
(§3) Whereas fluorophore-tethered probes are useful for detecting and following uptake of tumors on the skin surface in live animals, even with the most sensitive of far red or nIR detectors, due to light scattering, detection of emitted fluorescent light is limited to a depth of few mm of tissue. However, when used in conjunction with live imaging, 3D cryosectioning enables the biodistribution of fluorescent probes to the histological level throughout the body. Following sacrifice the animal was cryopreserved in liquid N2, then longitudinal cryosectioned at 40-μm slices. Each slice was imaged for fluorescence with an mCherry band filter (excitation 550-590 nm, emission 600-670 nm) as well as bright field (all slice image data can be down loaded at https://goo.gl/Z30dXJ). The images were reconstructed to create a 3D fluorescence and bright field images of the entire mouse anatomy (FIG. 4a). This process allowed for the first time a detailed examination of the complete biodistribution of 100 at the histological level in every organ. A control non-treated mouse was also imaged using an EGFP-mCherry dual band filter set. The limits of detection of 100 by fluorescence are estimated to be at <1-2 μmol. In a parallel study, an MS analysis was conducted on specific fluorescent tissues to confirm the presence of 100 parent ion (m/z=660.0 [M+2]2+).

[4] = tested on: MDA-MB-468 cells; experiment: 100 internalization assay in MDA-MB-468 cells; format: cell-based
Protocol: Cells were plated on uncoated 18-mm round coverslips in 12 well plates at 150,000 cells/well and were allowed to adhere overnight. 100, in a stock solution in DMSO, was diluted in serum-free/phenol red-free DMEM. After drug incubation, the cells were washed twice with ice-cold PBS, fixed with 1% PFA in PBS for 10 min, and stained with 5 μg/mL wheat germ agglutinin-488 (WGA-488, Invitrogen, Waltham, Mass.) and either Hoescht or DAPI. The coverslips were washed and mounted onto microscope slides using FluorSave mounting reagent (Millipore, Darmstadt, Germany). Slides were imaged on a Leica SP5 confocal microscope.
as §1, §2

[5] = MS analysis of tissues and urine for 100 parent ion after injection; format: in vivo, mouse
Description: as §3

## CC1(C)CC(=O)c2c(C(F)(F)F)nn(-c3ccc(C(N)=O)c(N[C@H]4CC[C@H](O)CC4)c3)c2C1 [SNX2112]
[1]
  blocking of binding of 100 and HS-27 to eHsp90: blocked

## Cc1nn(-c2ccc(C(N)=O)c(NCCCOCCOCCOCCOCCOCCCNC(=O)c3ccc(C4=C(/C=C/C5=[N+](CCCCS(=O)(=O)[O-])c6ccc7ccccc7c6C5(C)C)CCC/C4=C\C=C4\N(CCCCS(=O)(=O)O)c5ccc6ccccc6c5C4(C)C)cc3)c2)c2c1C(=O)CC(C)(C)C2 [Compound 112]
[2]
  Abs. Max: 803
  Em. Max: 829

## Cc1nn(-c2ccc(C(N)=O)c(NCCCOCCOCCOCCOCCOCCCNCc3ccc(C4=C(/C=C/C5=[N+](CCCCS(=O)(=O)[O-])c6ccc(S(=O)(=O)O)cc6C5(C)C)CCC/C4=C\C=C4\N(CCCCS(=O)(=O)O)c5ccc(S(=O)(=O)O)cc5C4(C)C)cc3)c2)c2c1C(=O)CC(C)(C)C2 [Compound 108, 4-(2-((E)-2-((E)-4′-(21-((2-carbamoyl-5-(3,6,6-trimethyl-4-oxo-4,5,6,7-tetrahydro-1H-indazol-1-yl)phenyl)amino)-6,9,12,15,18-pentaoxa-2-azahenicosyl)-6-(2-((E)-3,3-dimethyl-5-sulfo-1-(4-sulfobutyl)indolin-2-ylidene)ethylidene)-3,4,5,6-tetrahydro-[1,1′-biphenyl]-2-yl)vinyl)-3,3-dimethyl-5-sulfo-3H-indol-1-ium-1-yl)butane-1-sulfonate]
[2]
  Abs. Max: 775
  Em. Max: 802

## Cc1nn(-c2ccc(C(N)=O)c(NCCCOCCOCCOCCOCCOCCCNC(=O)c3ccc(C4=C(/C=C/C5=[N+](CCCCS(=O)(=O)[O-])c6ccccc6C5(C)C)CCC/C4=C\C=C4\N(CCCCS(=O)(=O)O)c5ccccc5C4(C)C)cc3)c2)c2c1C(=O)CC(C)(C)C2 [Compound 106, 4-(2-((E)-2-((E)-4′-((19-((2-carbamoyl-5-(3,6,6-trimethyl-4-oxo-4,5,6,7-tetrahydro-1H-indazol-1-yl)phenyl)amino)-4,7,10,13,16-pentaoxanonadecyl)carbamoyl)-6-(2-((E)-3,3-dimethyl-1-(4-sulfobutyl)indolin-2-ylidene)ethylidene)-3,4,5,6-tetrahydro-[1,1′-biphenyl]-2-yl)vinyl)-3,3-dimethyl-3H-indol-1-ium-1-yl)butane-1-sulfonate]
[2]
  Abs. Max: 766
  Em. Max: 795

## Cc1nn(-c2ccc(C(N)=O)c(NCCCOCCOCCOCCOCCOCCCNCc3ccc(C(=C\C=C4\N(CCCCS(=O)(=O)O)c5ccccc5C4(C)C)/C=C/C4=[N+](CCCCS(=O)(=O)[O-])c5ccccc5C4(C)C)cc3)c2)c2c1C(=O)CC(C)(C)C2 [Compound 100, 4-(2-((1E,3Z)-3-(4-(21-((2-carbamoyl-5-(3,6,6-trimethyl-4-oxo-4,5,6,7-tetrahydro-1H-indazol-1-yl)phenyl)amino)-6,9,12,15,18-pentaoxa-2-azahenicosyl)phenyl)-5-((Z)-3,3-dimethyl-1-(4-sulfobutyl)indolin-2-ylidene)penta-1,3-dien-1-yl)-3,3-dimethyl-3H-indol-1-ium-1-yl)butane-1-sulfonate]
[3]; 6 hour time point
  clearance from vasculature: cleared from the entire vasculature by the 6 hour time point
  probe related fluorescence in major organs (heart, lungs, liver, kidney, spleen, brain, skeletal muscle, stomach, skin, thyroid, prostate, fur): completely devoid of 100 related fluorescence
[3]; 6 hours post injection, 25 nmol tail vein
  probe in gut wall or endothelial lining of upper intestine: no evidence of 100 in the gut wall or endothelial lining
[3]; 6 hours, confirmed by MS analysis
  uptake in skeletal structures, bone marrow, spinal and synovial fluid: No uptake
[3]; SCID mouse, 6 hours
  uptake into lymph nodes: uptake of 100 into the lymph nodes
[4]
  cell permeability: not cell permeable
[5]; 6 hr post-drug injection
  MS detection of parent ion in intestines: did not show the presence of the parent 100 ion
[5]; MS analysis of flank tumor
  concentration of intact parent molecule in tumor: ~325 nM (w.w.)
[5]; SCID, mouse, other: injection, MS analysis of urine, 6 hours
  concentration at 6 h: ~50 nM
[5]; mouse, in vivo
  MS detection of parent ion in eyes: did not show evidence of the 100 parent ion
  route of elimination: primarily eliminated intact through the kidney

## Cc1nn(-c2ccc(C(N)=O)c(NCCCOCCOCCOCCOCCOCCCNC(=O)c3ccc(C(=C\C=C4\N(CCCCS(=O)(=O)O)c5ccccc5C4(C)C)/C=C/C4=[N+](CCCCS(=O)(=O)[O-])c5ccccc5C4(C)C)cc3)c2)c2c1C(=O)CC(C)(C)C2 [Compound 102, 4-(2-((1E,3Z)-3-(4-((19-((2-carbamoyl-5-(3,6,6-trimethyl-4-oxo-4,5,6,7-tetrahydro-1H-indazol-1-yl)phenyl)amino)-4,7,10,13,16-pentaoxanonadecyl)-carbamoyl)phenyl)-5-((E)-3,3-dimethyl-1-(4-sulfobutyl)indolin-2-ylidene)penta-1,3-dien-1-yl)-3,3-dimethyl-3H-indol-1-ium-1-yl)butane-1-sulfonate]
[2]
  Abs. Max: 643
  Em. Max: 670

## Cc1nn(-c2ccc(C(N)=O)c(NCCCOCCOCCOCCOCCOCCCNCc3ccc(C4=C(/C=C/C5=[N+](CCCCS(=O)(=O)[O-])c6ccccc6C5(C)C)CCC/C4=C\C=C4\N(CCCCS(=O)(=O)O)c5ccccc5C4(C)C)cc3)c2)c2c1C(=O)CC(C)(C)C2 [Compound 105, 4-(2-((E)-2-((E)-4′-(21-((2-carbamoyl-5-(3,6,6-trimethyl-4-oxo-4,5,6,7-tetrahydro-1H-indazol-1-yl)phenyl)amino)-6,9,12,15,18-pentaoxa-2-azahenicosyl)-6-(2-((E)-3,3-dimethyl-1-(4-sulfobutyl)indolin-2-ylidene)ethylidene)-3,4,5,6-tetrahydro-[1,1′-biphenyl]-2-yl)vinyl)-3,3-dimethyl-3H-indol-1-ium-1-yl)butane-1-sulfonate]
[2]
  Abs. Max: 766
  Em. Max: 796

## CC(C)NCCCn1c(Sc2cc3c(cc2I)OCO3)nc2c(N)ncnc21 [PUH71]
[1]; MDA-MB-468 cells, 100 at 25 μM, 45 min, 1 μM HS-10 or 10 μM PUH71
  competition of binding of probe 100 to eHsp90: competed
[1]
  blocking of binding of 100 and HS-27 to eHsp90: blocked

## CC(C)c1cc(-c2n[nH]c(=O)n2-c2ccc3c(ccn3C)c2)c(O)cc1O [Ganetespib]
[1]
  blocking of binding of 100 and HS-27 to eHsp90: blocked

## Cc1nn(-c2ccc(C(N)=O)c(NCCCOCCOCCOCCOCCOCCCNCc3ccc(C4=C(/C=C/C5=[N+](CCCCS(=O)(=O)[O-])c6ccc7ccccc7c6C5(C)C)CCC/C4=C\C=C4\N(CCCCS(=O)(=O)O)c5ccc6ccccc6c5C4(C)C)cc3)c2)c2c1C(=O)CC(C)(C)C2 [Compound 111]
[2]
  Abs. Max: 803
  Em. Max: 828
